Patent US9249159B2, “Composition for treating hepatitis C virus, regulating phosphorylation of replicase” (Industry-Academic Cooperation Foundation, Yonsei University, priority 2011, dated 2016)
“Also recorded” adds a separate entry of the source.

Legend:
[1] = system: genotype 2a HCV (JFH1)-infected Huh7 cells; assay: HCV RNA level in Huh7 cells infected with HCV (JFH1); type: cell-based, hepatitis C virus genotype 2a; details: Huh7 cell infected with HCV (JFH-1), 60 and 100 μM, 48 hours
Description: (§1) To do so, after the two cell lines were treated with the compound #17 at higher concentrations (60 and 100 μM) than 20 μM for 48 hours, an HCV RNA genome level was checked by a real-time RT-PCR analysis. A value was a mean±standard deviation (SD) of three independent measurements. HCV RNA titer was quantified by real-time PCR analysis. Three independent experiments were performed in triplicate.
Full-length, infectious HCV RNA of the genotype 2a HCV clone JFH1 was prepared by in vitro transcription using the MEGAscript T7 kit (Ambion, Austin, Tex., USA) and electroporated into Huh7 cells as described previously. Briefly, at 72 h post electroporation, culture medium was collected, cleared by low-speed centrifugation, and passed through a 0.45-μm filter (Millipore, Billerica, Mass., USA) before being used for infection of Huh7 cells. Cells were infected with HCV at a multiplicity of infection of 0.3 by adsorption for 3 h with periodic rocking, then washed three times with phosphate-buffered saline (PBS) and maintained in complete DMEM. […]
Total RNA was extracted from R-1 or HCV (JFH1)-infected cells using TRIzol LS reagent (Invitrogen, Carlsbad, Calif., USA) and purified according to the manufacturer's instructions. HCV RNA levels were quantified by RT-PCR using a primer pair and TaqMan probe targeting a region within the HCV 5′-UTR as described previously. […] Assays were performed using the DyNAmo Probe 2-step qRT-PCR Kit (Finnzymes, Espoo, Finland) and a CHROMO4 continuous fluorescence detector (Bio-Rad, Hercules, Calif., USA), according to the manufacturer's instructions.
In order to analyze whether or not 17-DMAG can inhibit replication in a cell infected with HCV, an experiment was carried out with the genotype 2a HCV infectious clone JFH1, which produces infectious virions in Huh7 or Huh7-derived cell lines. […] After 72 hours, total cellular RNA was extracted and HCV remaining in the infected cell was analyzed by quantitative RT-PCR.

[2] = system: genotype 1b HCV subgenomic replicon (R-1 cell line); assay: HCV replication (HCV RNA by real-time RT-PCR, NS5B protein by Western blot) in R-1 subgenomic replicon cells; type: cell-based, hepatitis C virus genotype 1b; details: 48 hours
Description: In order to check a PRK2 phosphorylation inhibition effect of the novel inhibitors obtained in Example 1, R-1 cell line harboring HCV subgenomic replicons was used.
The R-1 cell line was comprised of cis-acting RNA elements of 5′ and 3′-end untranslated regions (UTR) essential for replication of HCV RNA, a selection marker inserted to select a replicated RNA into a portion from which a structural protein coding site was removed, and a non-structural protein (NS3-NS5B)-coding gene required for replication. In the replicon, the selection marker was expressed by the HCV 5′-UTR and internal ribosome entry site (IRES) as a part of a coding gene of a core protein as a structural protein and capsid protein, and HCV non-structural proteins were expressed by IRES of EMCV. In order to obtain replicon cells, a HCV subgenomic replicon RNA was obtained by means of in vitro transcription by using a T7 RNA polymerase, free ribonucleotide was removed by using a spin column, and introduced into a hepatocellular carcinoma cell line by electroporation. In the presence of G418, a stable cell line, i.e. a cell line showing a resistance to G418 through replication of HCV subgenome, was obtained. Expression of the HCV non-structural proteins in this cell line was analyzed by Western blot to confirm that replication was being carried out, and the R-1 cell line was constructed. It was observed that an HCV RNA copy number was about 10^7 copies/mL by a quantitative real-time PCR analysis using a TaqMan probe. The R-1 cell line was a cell line in which HCV RNA replication was being carried out, and thus it could be used to evaluate an HCV replication inhibition effect of a PRK2 activity inhibitor.
Then, after the R-1 cell line was treated with each of 5 screened PRK2 inhibitors, HA1077 currently and clinically used as a PRK2 activity inhibitor, and Y27632 having a PRK2 activity inhibition effect at a final concentration of 20 μM for 48 hours, levels of HCV NS5B protein and HCV RNA in cell lysates (50 μg) were analyzed by Western blot and real-time RT-PCR.
as §1
5 derivatives (#18 to #22: refer to FIG. 2) were produced based on the inhibitor #17 showing the best effect. After the R-1 cell line was treated with each of these inhibitors or HA1077 and Y27632 at a final concentration of 20 μM for 48 hours, an HCV RNA genome level was checked by a real-time RT-PCR analysis and expressed in % with respect to a control treated with DSMO. Three independent experiments were conducted repeatedly three times. Data were expressed by mean±SD of the three experiments.
Total RNA was extracted from R-1 or HCV (JFH1)-infected cells using TRIzol LS reagent (Invitrogen, Carlsbad, Calif., USA) and purified according to the manufacturer's instructions. HCV RNA levels were quantified by RT-PCR using a primer pair and TaqMan probe targeting a region within the HCV 5′-UTR as described previously. Cellular glyceraldehyde-3-phosphate dehydrogenase was used as an internal control. Assays were performed using the DyNAmo Probe 2-step qRT-PCR Kit (Finnzymes, Espoo, Finland) and a CHROMO4 continuous fluorescence detector (Bio-Rad, Hercules, Calif., USA), according to the manufacturer's instructions.
Therefore, anti-HCV activity of 17-DMAG in the R-1 cell was tested at a level lower than 50 nM. To do so, the R-1 cell was treated with a vehicle (0.25% DMSO) or 17-DMAG for 72 hours and the cell lysates (50 μg) and antibodies specific to the proteins were immunoblotted to measure levels of the proteins. An anti-α-tubulin antibody (lower end panel) was used as an internal loading control. […]

[3] = system: Huh7 cell; assay: Cytotoxicity / cell viability (MTS) in Huh7 cell; type: cell-based, human; details: 100 μM
Description: (§2) Cytotoxicity of 17-DMAG was measured by using a reagent MTS [3-(4,5-dimethylthiazol-2-yl)-5-(3-carboxylmethoxyphenyl)-2-(4-sulfophenyl)-2H-tetrazolium] (Promega, Madison, Wis., USA) according to the protocols of the manufacturer. The experiment was carried out as follows.
(§3) Huh7 or R-1 cells (2×10^4 cell/well) were seeded in a 96-well plate and treated with 17-DMAG at different concentrations for 72 hours. Then, the culture medium was removed and a MTS substrate dissolved in the culture medium containing 5% FBS was added to each well of the plate. The cells were cultured at 37° C. for 1 hour, and absorbance at 490 nm was read in a 96-well micro plate automatic reading system using GloMax-Multi detection system (Promega).
(§4) An experiment was carried out to check whether or not 17-DMAG inhibited virus RNA replication in an R-1 cell in which autonomous replication of a genotype 1b HCV subgenomic replicon RNA was maintained. Before antiviral activity of 17-DMAG was evaluated, an MTS assay was carried out to evaluate whether or not the drug interfered with cell viability. To be specific, the R-1 cell loaded with a selective HCV subgenomic replicon (upper diagram) and its parental cell line Huh7 were treated with 17-DMAG at a certain concentration for 72 hours, and cell viability was evaluated by the MTS assay.

[4] = molecular target: recombinant active PRK2 (Homo sapiens, UniProt Q16513); assay: In vitro kinase assay: recombinant PRK2 phosphorylating HCV NS5B; type: biochemical; details: gamma-32P ATP and 100 μM ATP, autoradiography
Description: Then, in order to test an HCV NS5B protein phosphorylation inhibition effect of the screened novel PRK2 inhibitor, in vitro kinase assay was carried out.
Using a recombinant active PRK2 and purified HCV NS5B protein as substrates, the screened inhibitors #11 and #17 were treated in the presence of gamma-^32P ATP and 100 μM ATP. The reaction mixture was separated by SDS-PAGE (8% gel), and a result thereof was checked by autoradiography.
Finally, PRK2 and HCV NS5B phosphorylation inhibition effects of the compounds #18, #19, #20, #21 and #22 as the derivatives of the compound #17 were analyzed through in vitro kinase assay.
A 1 μM recombinant PRK2 and 10 μM HCV NS5B were phosphorylated for 30 minutes in the presence of 10 μCi γ-^32P ATP and 100 μM ATP. The reaction mixture was separated by SDS-PAGE (8% gel), and a result thereof was checked by autoradiography.

[5] = system: R-1 cell; assay: Cytotoxicity / cell viability in R-1 cell; type: cell-based, human; details: R-1 cell, 100 μM
Description: as §2, §3, §4

Sequence of recombinant active PRK2 (Q16513 whole entry): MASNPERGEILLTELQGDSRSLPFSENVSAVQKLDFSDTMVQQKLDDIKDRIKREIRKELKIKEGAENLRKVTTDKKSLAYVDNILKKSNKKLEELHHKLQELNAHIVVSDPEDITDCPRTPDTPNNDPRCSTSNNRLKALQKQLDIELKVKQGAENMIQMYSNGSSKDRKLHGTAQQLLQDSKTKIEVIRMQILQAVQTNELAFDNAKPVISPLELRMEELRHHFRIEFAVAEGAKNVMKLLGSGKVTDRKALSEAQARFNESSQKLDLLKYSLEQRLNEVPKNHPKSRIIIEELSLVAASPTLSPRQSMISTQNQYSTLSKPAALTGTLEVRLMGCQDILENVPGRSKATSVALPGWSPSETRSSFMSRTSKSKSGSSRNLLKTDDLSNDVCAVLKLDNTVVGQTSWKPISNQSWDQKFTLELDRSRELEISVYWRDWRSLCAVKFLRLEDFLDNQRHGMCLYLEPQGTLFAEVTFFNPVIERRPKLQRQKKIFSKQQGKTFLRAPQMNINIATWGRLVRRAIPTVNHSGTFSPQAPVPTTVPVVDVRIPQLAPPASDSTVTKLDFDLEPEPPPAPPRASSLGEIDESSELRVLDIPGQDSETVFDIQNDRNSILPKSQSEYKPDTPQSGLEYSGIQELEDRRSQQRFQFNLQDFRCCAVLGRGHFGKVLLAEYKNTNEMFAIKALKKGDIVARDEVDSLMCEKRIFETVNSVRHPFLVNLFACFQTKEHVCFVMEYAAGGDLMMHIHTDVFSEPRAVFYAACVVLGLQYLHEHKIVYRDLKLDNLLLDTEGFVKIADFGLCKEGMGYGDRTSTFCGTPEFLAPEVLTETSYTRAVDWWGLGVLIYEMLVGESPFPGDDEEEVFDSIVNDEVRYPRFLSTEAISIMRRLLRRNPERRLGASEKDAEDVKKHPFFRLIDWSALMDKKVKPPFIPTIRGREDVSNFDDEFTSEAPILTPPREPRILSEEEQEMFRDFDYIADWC

## O=C1NCCCC1C(=O)Nc1ccncc1 (stereo not drawn) [compound #17, 2-oxo-N-4-pyridinyl-3-piperidinecarboxamide]
[1]
  HCV RNA titers: decreased in a dosage-dependent manner; also recorded: slightly higher in a cell infected with JFH-1 than in an HCV subgenomic replicon cell
[2]; R-1 cell line, 20 μM
  decrease of HCV RNA titers with respect to DMSO control: about 50%
[2]; R-1 cell, 60 and 100 μM
  HCV RNA titers: decreased in a dosage-dependent manner
[3]
  activity of the cells (cytotoxicity): not greatly inhibited
[4]
  inhibition of in vitro phosphorylation of HCV NS5B protein: inhibit phosphorylation of HCV NS5B protein
[5]
  activity of the cells (cytotoxicity): not greatly inhibited
